# Like-named read-outs stand apart in the source and are kept apart here.
# Columns and labels:
# [1] = system: H3K18Ac in HB-CLS-2 cells; assay: H3K18AC in-cell western (ICW) assay; type: cell-based; details: H3K18Ac in-cell western, read-out: CREBBP ICW IC50
# Outline: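 In-cell western: after methanol fixation, blocking, overnight 4° C anti-H3K18Ac staining, then 800CW secondary plus DRAQ5 for DNA content, integrated intensities were scanned at 800 and 700 nm. Before this, compound exposure lasted 2 hr at 37° C in HB-CLS-2 cells plated 16–24 hours earlier. Values expressed as IC50 (μM).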
# [2] = system: 647V cells; assay: High throughput proliferation (HTP) assay; type: cell-based; details: high throughput proliferation, read-out: CREBBP HTP IC50
# Outline: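 Proliferation IC50 (micromolar) derived from a 7-day CellTiter-Glo viable-cell readout in 647V cells exposed, in triplicate, to rising compound concentrations; cells grown in DMEM plus 15% heat-inactivated FBS at 37° C under 5% CO2.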
# [3] = biological target: T1, CREBBP (1084-1701) (Homo sapiens, UniProt Q92793); assay: Biochemical assay for CREBBP (1084-1701), SAMDI; details: SAMDI, read-out: CREBBP Biochemistry IC50
# T1 construct: measured in the following biochemical assay using CREBBP (1084-1701); purchased
# Outline: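 Acetyltransferase activity measured by SAMDI mass spectrometry after capture on biochip. Enzyme sat with compound 30 min at RT before acetyl-CoA and biotinylated H3 11-25 (K14R, K23R) peptide were added for 30 min at RT. Formic acid quench, bicarbonate neutralisation; IC50 values reported.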
# [4] = biological target: T2, EP300 (P300(1048-1664)) (Homo sapiens, UniProt Q09472); assay: Biochemical assay for EP300, SAMDI; details: EP300, SAMDI; read-out: EP300 Biochemistry IC50
# T2 construct: P300(1048-1664)
# T2 sequence (Q09472 1048-1664): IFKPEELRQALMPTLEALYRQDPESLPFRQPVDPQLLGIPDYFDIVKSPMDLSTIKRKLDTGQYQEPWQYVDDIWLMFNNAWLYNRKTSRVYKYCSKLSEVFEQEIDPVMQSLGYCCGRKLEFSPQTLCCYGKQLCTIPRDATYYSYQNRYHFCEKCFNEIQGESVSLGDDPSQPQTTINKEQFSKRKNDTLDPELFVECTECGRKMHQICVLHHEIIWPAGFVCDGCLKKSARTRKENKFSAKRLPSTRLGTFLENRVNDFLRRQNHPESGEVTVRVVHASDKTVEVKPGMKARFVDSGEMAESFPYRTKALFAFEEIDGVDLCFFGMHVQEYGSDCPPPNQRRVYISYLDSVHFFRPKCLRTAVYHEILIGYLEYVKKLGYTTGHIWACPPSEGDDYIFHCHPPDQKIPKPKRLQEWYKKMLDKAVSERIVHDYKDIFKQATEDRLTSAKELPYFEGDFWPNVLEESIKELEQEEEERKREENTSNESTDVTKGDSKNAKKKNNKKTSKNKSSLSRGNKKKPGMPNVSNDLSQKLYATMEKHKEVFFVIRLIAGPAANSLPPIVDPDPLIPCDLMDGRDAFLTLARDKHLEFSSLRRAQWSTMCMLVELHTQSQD
# Description: The following example describes materials and methods relating to a biochemical assay for EP300. IC50 values (micromolar (μM)) are summarized in Table 1, Table 2, and Table 3 under the column labeled: “EP300 Biochemistry IC50 (micromolar).”
# [5] = Homo sapiens, 647-V, 647V cells
# T1 sequence (Q92793 1084-1701): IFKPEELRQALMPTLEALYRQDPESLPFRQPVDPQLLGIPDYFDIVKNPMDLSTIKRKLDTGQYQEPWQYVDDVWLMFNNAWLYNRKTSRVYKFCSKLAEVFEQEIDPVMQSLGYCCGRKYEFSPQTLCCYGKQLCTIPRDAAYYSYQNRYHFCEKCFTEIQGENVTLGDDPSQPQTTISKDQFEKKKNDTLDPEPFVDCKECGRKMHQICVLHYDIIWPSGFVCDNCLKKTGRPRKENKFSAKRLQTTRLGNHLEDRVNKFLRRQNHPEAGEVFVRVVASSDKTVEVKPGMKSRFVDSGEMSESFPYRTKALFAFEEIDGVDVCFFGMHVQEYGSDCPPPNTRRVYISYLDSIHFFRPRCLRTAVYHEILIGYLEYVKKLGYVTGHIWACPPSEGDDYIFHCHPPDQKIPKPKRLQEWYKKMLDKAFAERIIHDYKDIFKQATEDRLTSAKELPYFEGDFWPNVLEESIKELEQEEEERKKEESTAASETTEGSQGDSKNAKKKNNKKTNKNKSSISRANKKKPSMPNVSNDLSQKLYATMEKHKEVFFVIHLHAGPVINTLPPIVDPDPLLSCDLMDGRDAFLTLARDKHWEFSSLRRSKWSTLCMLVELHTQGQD
SMILES,IC50 ([1]; HB-CLS-2 cells) [nM],IC50 [3] [nM],IC50 [4] [nM],IC50 [1] [nM],"IC50 [2, 5] [nM]",IC50 ([2]; 647V cells) [nM],"IC50 ([2]; Homo sapiens, 647-V) [nM]",IC50 [2] [nM]
CCn1ncc(CN(C)C(=O)c2nc(-c3cc(C(=O)NC)nn3C)nc3ccc(Cl)cc23)c1C [Compound 391],3200,8500,4100,,3100,,,
CCn1ncc(CN(C)C(=O)c2nc(-c3cc(Cl)cc(C(=O)NC)c3)nc3ccc(Cl)cc23)c1C [Compound 392],20000,50000,50000,,20000,,,
CCn1ncc(CN(C)C(=O)c2nc(-c3cc(Cl)cc(CNC4CCNCC4)c3)nc3ccc(Cl)cc23)c1C [Compound 394],5400,2000,3800,,4200,,,
CCn1ncc(CN(C)C(=O)c2nc(-c3cc(C(=O)Nc4ccccc4)n(C)n3)nc3ccc(Cl)cc23)c1C [Compound 396],20000,50000,35000,,8400,,,
CCn1ncc(CN(C)C(=O)c2cc(-c3cc(NC(=O)CNC)cc(C)n3)nc3ccc(Cl)cc23)c1C [Compound 397],130,43,42,,160,,,
CCn1ncc(CN(C)C(=O)c2nc(-c3cc(C)nc(CNC)c3)nc3ccc(Cl)cc23)c1C [Compound 398],8200,24000,22000,,4800,,,
CCn1ncc(CN(C)C(=O)c2cc(-c3cc4[nH]ncc4c(C)n3)nc3ccc(Cl)cc23)c1C [Compound 401],120,56,18,,130,,,
CCn1ncc(CN(C)C(=O)c2nc(-c3ccc4c(N)[nH]nc4c3C)nc3ccc(Cl)cc23)c1C [Compound 402],350,62,300,,310,,,
CCn1ncc(CN(C)C(=O)c2nc(-c3cc(CNC)nn3C)nc3ccc(Cl)cc23)c1C [Compound 403],12000,50000,22000,,10000,,,
CCn1ncc(CN(C)C(=O)c2nc(-n3cc(CCN(C)C)cn3)nc3ccc(Cl)cc23)c1C [Compound 405],1600,5700,2700,,1700,,,
CCn1ncc(CN(C)C(=O)c2nc(-c3cc(C#N)n(C)n3)nc3ccc(Cl)cc23)c1C [Compound 406],20000,50000,50000,,20000,,,
CCn1ncc(CN(C)C(=O)c2cc(-c3ccc(OCCNC)c(Cl)c3)nc3ccc(P(C)(C)=O)cc23)c1C [Compound 407],18000,2100,700,,,7400,,
CCn1ncc(CN(C)C(=O)c2nc(-c3cc(C)cc(NCC(=O)NC)c3)nc3ccc(Cl)cc23)c1C [Compound 408],1100,430,950,,890,,,
CCn1ncc(CN(C)C(=O)c2cc(-c3cc(NCCNC)cc(C)n3)nc3ccc(Cl)cc23)c1C [Compound 409],230,74,23,,54,,,
CCn1ncc(CN(C)C(=O)c2cc(-c3cc(C)c(OCCNC)cn3)nc3ccc(Cl)cc23)c1C [Compound 410],6100,5500,1400,,2800,,,
CCn1ncc(CN(C)C(=O)c2cc(-c3cnc(OCCNC)cn3)nc3ccc(Cl)cc23)c1C [Compound 413],6400,21000,7400,,5000,,,
CCn1ncc(CN(C)C(=O)c2nc(-c3ccc(OCCNC)nn3)nc3ccc(Cl)cc23)c1C [Compound 414],20000,30000,44000,,20000,,,
CCn1ncc(CN(C)C(=O)c2cc(-c3ccc(N(C)CCNC)c(C)n3)nc3ccc(Cl)cc23)c1C [Compound 417],4900,22000,16000,,3100,,,
CCn1ncc(CN(C)C(=O)c2nc(-n3nc(N)c4ccc(C)cc43)nc3ccc(Cl)cc23)c1C [Compound 419],5800,10000,4400,,410,,,
CCn1ncc(CN(C)C(=O)c2cc(-c3ccc(NCCNC)c(C)n3)nc3ccc(COC)cc23)c1C [Compound 432],,39.6,18.6,155,,,106,
CCn1ncc(CN(C)C(=O)c2nc(-c3cc4c(N)nn(C)c4cc3C)nc3ccc(Cl)cc23)c1C [Compound 433],,24900,12500,20000,,,2220,
CCn1ncc(CN(C)C(=O)c2nc(-c3cnnc(N)c3)nc3ccc(Cl)cc23)c1C [Compound 434],,3510,2700,1720,,,2250,
CCn1ncc(CN(C)C(=O)c2cc(-c3ccc(OCC(O)CNC)c(C)n3)nc3ccc(Cl)cc23)c1C (stereo not drawn) [Compound 435],,36.8,15.8,163,,,,102
CCn1ncc(CN(C)C(=O)c2nc(-c3cc(C)c4nc[nH]c4c3)nc3ccc(COC)cc23)c1C [Compound 439],,170,628,919,,,752,

# Continued, in another order:
IC50 ([1]; HB-CLS-2 cells) [nM],IC50 [3] [nM],IC50 [4] [nM],IC50 [1] [nM],SMILES,"IC50 [2, 5] [nM]",IC50 ([2]; 647V cells) [nM],"IC50 ([2]; Homo sapiens, 647-V) [nM]",IC50 [2] [nM]
120,16,7.5,,CCn1ncc(CN(C)C(=O)c2nc(-c3ccc(NC4CCOCC4)c(C)c3)nc3ccc(Cl)cc23)c1C [Compound 387],88,,,
230,34,11,,CCn1ncc(CN(C)C(=O)c2cc(-c3ccc(NCCNC)c(C)n3)nc3ccc(Cl)cc23)c1C [Compound 388],66,,,
82,17,7.4,,CCn1ncc(CN(C)C(=O)c2cc(-c3ccc(NC4CNC4)c(C)n3)nc3ccc(Cl)cc23)c1C [Compound 389],73,,,
650,33,140,,CCn1ncc(CN(C)C(=O)c2nc(-c3cc(OC)c4cn[nH]c4c3)nc3ccc(Cl)cc23)c1C [Compound 390],680,,,
270,37,37,,CCn1ncc(CN(C)C(=O)c2cc(-c3ccc(NCC(=O)NC)c(C)n3)nc3ccc(Cl)cc23)c1C [Compound 395],410,,,
110,29,13,,CCn1ncc(CN(C)C(=O)c2cc(-c3cc4[nH]cnc4cn3)nc3ccc(Cl)cc23)c1C [Compound 400],110,,,
170,2.5,23,,CCn1ncc(CN(C)C(=O)c2cc(-c3ccc(NC)c(C)n3)nc3ccc(Cl)cc23)c1C [Compound 404],120,,,
240,32,23,,CCc1cc(-c2nc(C(=O)N(C)Cc3cnn(CC)c3C)c3cc(Cl)ccc3n2)ccc1NC1CCOCC1 [Compound 415],240,,,
78,2.5,2.5,,CCn1ncc(CN(C)C(=O)c2nc(-c3cc4c(N)n[nH]c4cc3C)nc3ccc(Cl)cc23)c1C [Compound 418],62,,,
,7.21,4.2,130,CCn1ncc(CN(C)C(=O)c2nc(-c3cc(C)c4[nH]c(=O)[nH]c4c3)nc3ccc(Cl)cc23)c1C [Compound 436],,,94.2,
,7.82,5.2,74.5,CCn1ncc(CN(C)C(=O)c2cc(-c3cc4n[nH]cc4cn3)nc3ccc(Cl)cc23)c1C [Compound 437],,,119,
,2.5,37.8,84.8,CCn1ncc(CN(C)C(=O)c2nc(-c3cc(N)c4cn[nH]c4c3)nc3ccc(Cl)cc23)c1C [Compound 438],,,78.5,
